Among the data in PubChem BioAssay (NCI) are TGI values, retold here.

What all share (assay): NCI-60 cell line screen, 48 h
For experiment [1], the system named is HOP-62 NSCLC.
The test system of experiment [2] is COLO 205 colon.
Experiment [3] relates to SK-OV-3 ovarian.
Experiment [4] relates to SK-MEL-2 melanoma.
In experiment [5] the test system is ACHN renal.
Experiment [6] concerns TK-10 renal.
Experiment [7] concerns 786-0 renal.
Experiment [8] concerns MCF7 breast.
The test system of experiment [9] is NCI-H226 lung.
In experiment [10] the test system is CCRF-CEM leukemia.
For experiment [11], the system named is SNB-75 CNS.
For experiment [12], the system named is SF-268 CNS.
The subject of experiment [13] is EKVX NSCLC.
Experiment [14] concerns PC-3 prostate.
In experiment [15] the test system is SK-MEL-28 melanoma.
The test system of experiment [16] is MDA-N.
For experiment [17], the system named is RPMI-8226 leukemia.
Experiment [18] relates to LOX IMVI melanoma.
The test system of experiment [19] is SF-539 CNS.
Experiment [20] concerns HL-60(TB) leukemia.

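Results reflect a 48-hour exposure of cells in 96-well plates to compound at five concentrations. TGI is the concentration that stops growth completely.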

Consider `CC1(C)[C@H]2Cc3cc4nc5ccccn5c4cc3[C@@H]1C2`, for which the TGI in experiment [1] is 39.7 µM; in [2] it was 34.7 µM; in experiment [3], 36.4 µM; in experiment [4], 32 µM; in experiment [5] it was 34.2 µM; in experiment [6], 33 µM. The TGI was found to be 32.7 µM in [7]; 17.8 µM in [8]; 35.4 µM in experiment [9]; 75.1 µM in [10]; 31.6 µM in experiment [11]; 34.5 µM in [12]. Further, the TGI came out at 32.7 µM in experiment [13]; 41.5 µM in experiment [14]; 36.3 µM in experiment [15]; 33.4 µM in experiment [16]; 69.3 µM in [17]; 39.4 µM in experiment [18]. Further, the TGI worked out at 33.6 µM in experiment [19] and 57.2 µM in [20].
As for `CC(C)C(=O)/C=C/c1c(Cl)cccc1Cl`, the TGI in experiment [1] is 17.7 µM; in [2] it was 22.4 µM; in [3], 9.27 µM; in [4], 7.99 µM; in experiment [5], 16.2 µM; in experiment [6], 24.5 µM. Moreover, the TGI is 20.1 µM in experiment [7]; 15.8 µM in experiment [8]; 8.01 µM in experiment [9]; greater than 100 µM in experiment [10]; 8.38 µM in experiment [11]; 10.5 µM in experiment [12]. The TGI in [13] is 26 µM; in experiment [14], 24.4 µM; in [15], 20.5 µM; in experiment [16], 11.8 µM; in experiment [17] it was greater than 100 µM; in experiment [18], 7.32 µM. The values for the TGI in experiment [19] and in experiment [20] were 7.44 µM and greater than 100 µM, respectively.
On to `COc1cc(OC)c(/C=N\Nc2nc3ccccc3c(=O)n2-c2ccccc2)c(OC)c1`, for which the TGI was 47.7 µM in [1]; greater than 100 µM in experiment [2]; 77.6 µM in experiment [3]; 64 µM in experiment [4]; 38.8 µM in experiment [5]; greater than 66 µM in experiment [6]. The TGI is 37.6 µM in experiment [7]; greater than 73.8 µM in experiment [8]; 44 µM in [9]; 51.6 µM in [10]; greater than 100 µM in experiment [11]; greater than 100 µM in experiment [12]. Also, the TGI is 63.7 µM in [13]; 53.7 µM in experiment [14]; 87.2 µM in [15]; 43.9 µM in experiment [16]; greater than 100 µM in experiment [17]; 69.6 µM in experiment [18]. Besides, the TGI was 39.3 µM in experiment [19] and greater than 100 µM in experiment [20].
Turning to `CCOC(=O)CC1Nc2ccccc2C12CCc1c([nH]c3ccccc13)C2C(=O)OCC` (stereo not given), the TGI in experiment [1] was greater than 100 µM; in [2], 22.4 µM; in experiment [3] it was greater than 100 µM; in experiment [4], greater than 100 µM; in experiment [5], greater than 100 µM; in [6] it was greater than 100 µM. Moreover, the TGI in experiment [7] is greater than 100 µM; in [8], greater than 100 µM; in experiment [10], greater than 100 µM; in [11], 4.72 µM; in experiment [12], greater than 100 µM; in experiment [13] it was greater than 100 µM. In addition, the TGI in [14] was greater than 100 µM; in experiment [15], greater than 100 µM; in [16] it was greater than 100 µM; in experiment [17], 11.1 µM; in experiment [18], greater than 100 µM; in experiment [19], greater than 100 µM. The TGI in experiment [20] is 53.8 µM.
Take `NS(=O)(=O)c1ccc(NC(=O)c2ccc3nc4ccccc4c(Nc4ccc(S(N)(=O)=O)cc4)c3c2)cc1`: the TGI in experiment [1], in [2], in experiment [3], in [4], in experiment [5] and in experiment [6] was greater than 100 µM throughout. Further, the TGI in [7], in experiment [8], in experiment [9], in [10], in [11] and in [12] was greater than 100 µM each time. The TGI in [13], in [14], in [15], in [16], in experiment [17] and in experiment [18] was greater than 100 µM in each case. Also, the TGI in [19] and in experiment [20] was greater than 100 µM in each case.
As for `CC/C=C\C=C/C(=O)N/C=C/CCC`, the TGI in [1], in experiment [3], in experiment [4], in experiment [5], in experiment [6] and in experiment [7] was greater than 100 µM throughout. The TGI in experiment [8], in [9], in experiment [10], in [11], in experiment [12] and in [13] was greater than 100 µM throughout. The TGI in experiment [14], in experiment [15], in [16], in [17], in [18] and in experiment [19] was greater than 100 µM throughout. Moreover, the TGI in experiment [20] is greater than 100 µM.
For the compound `C#CCn1c(=O)ccn(/C(=C/C(=O)OCC)C(=O)OCC)c1=O`, the TGI was 31.8 µM in [1]; greater than 100 µM in experiment [3]; 30.2 µM in [4]; 3.21 µM in [5]; 3.68 µM in [6]; 32.5 µM in experiment [7]. For the same compound, the TGI in [8] amounted to 13 µM; in experiment [9], 39.7 µM; in experiment [10] it was 6.35 µM; in experiment [11] it was 46.5 µM; in experiment [12], 26.9 µM; in experiment [13] it was 20.3 µM. The TGI in experiment [14] was 28.1 µM; in experiment [15], 21.6 µM; in experiment [16], 41.1 µM; in experiment [17] it was greater than 24.6 µM; in [18], 40.3 µM; in experiment [19], 3.99 µM. Further, the TGI in [20] was greater than 52.9 µM.
As to `CN1CCN(c2n[nH]c(=O)c3c2nnn3C2CCCCC2)CC1`, the TGI in experiment [1], in [2], in [4], in experiment [5], in [6] and in [7] was greater than 100 µM each time. Further, the TGI in experiment [8], in experiment [9], in experiment [10], in experiment [11], in [12] and in experiment [13] was greater than 100 µM each time. The TGI in experiment [14], in experiment [15], in experiment [16], in experiment [17], in experiment [18] and in experiment [19] was greater than 100 µM throughout. The compound also yielded a TGI in [20] greater than 100 µM.
Regarding `O=C(O)c1ccc(Nc2cnc3cc(C(F)(F)F)ccc3n2)cc1`, the TGI in [1], in [2], in experiment [5], in [6], in experiment [7] and in experiment [8] was greater than 100 µM in each case. Also, the TGI in experiment [9], in experiment [10], in experiment [11], in experiment [12], in [13] and in [14] was greater than 100 µM each time. In addition, the TGI in [15], in experiment [16], in experiment [17], in [18], in experiment [19] and in experiment [20] was greater than 100 µM each time.
With `COc1ccc(Nc2cc(=O)[nH]c(=O)[nH]2)cc1`, the TGI in experiment [1], in experiment [2], in [5], in experiment [6], in experiment [7] and in experiment [8] was greater than 100 µM each time. The TGI in [9], in [10], in experiment [11], in experiment [12], in [13] and in [14] was greater than 100 µM each time. Moreover, the TGI in experiment [15], in experiment [16], in experiment [17], in [18], in experiment [19] and in experiment [20] was greater than 100 µM throughout.
Consider `CC(C)C(/C=C/c1ccc(Cl)cc1)=N\NC(=O)N/N=C(/C=C/c1ccc(Cl)cc1)C(C)C`, for which the TGI is 47.3 µM in experiment [1]; greater than 100 µM in [2]; 93.1 µM in [3]; 59.8 µM in experiment [4]; 87.3 µM in experiment [5]; 51.3 µM in [6]. In addition, the TGI was 33.5 µM in experiment [7]; greater than 100 µM in [8]; 54.9 µM in [9]; greater than 100 µM in [10]; 39 µM in [11]; 41.3 µM in experiment [12]. In addition, the TGI was 50.5 µM in experiment [13]; greater than 100 µM in [14]; greater than 100 µM in [15]; greater than 100 µM in experiment [16]; greater than 100 µM in experiment [17]; 31.2 µM in experiment [19]. This compound yielded a TGI in experiment [20] greater than 100 µM.
As to `CN1CCc2c(sc3ncn(Nc4ccc(F)cc4)c(=N)c23)C1`, the TGI in [1], in experiment [3], in experiment [4], in experiment [5], in experiment [6] and in experiment [7] was greater than 100 µM throughout. The TGI in experiment [8], in experiment [9], in experiment [10], in experiment [11], in experiment [12] and in [13] was greater than 100 µM throughout. In addition, the TGI in experiment [14], in experiment [15], in [16], in experiment [17], in experiment [18] and in experiment [19] was greater than 100 µM throughout. In addition, the TGI in experiment [20] is greater than 100 µM.
Consider `CC1(C)N([O-])[N+](=O)C1(C)O` (stereo not given), for which the TGI in experiment [2], in experiment [3], in [4], in experiment [6], in [7] and in [8] was greater than 100 µM in each case. Besides, the TGI in [9], in experiment [10], in [11], in [12], in [13] and in experiment [14] was greater than 100 µM in each case. Further, the TGI in experiment [15], in experiment [16], in experiment [17], in experiment [18], in experiment [19] and in experiment [20] was greater than 100 µM throughout.
Consider `O=C(Nc1ccc(Cl)cc1)c1cc(S(=O)(=O)N2CCNNC2=O)c(S)cc1Cl`, for which the TGI in experiment [2], in experiment [4], in experiment [5], in [6], in experiment [7] and in experiment [8] was greater than 100 µM in each case. Moreover, the TGI in [9], in experiment [10], in experiment [11], in [12], in experiment [13] and in experiment [14] was greater than 100 µM in each case. The TGI in [15], in experiment [16], in [17], in [18], in [19] and in experiment [20] was greater than 100 µM each time.
As to `C=C(C)COc1cc(NC(=S)OC(C)C)ccc1Cl`, the TGI stood at 31.6 µM in [2]; 38.1 µM in [3]; 27.2 µM in experiment [4]; 31.1 µM in [5]; 29.3 µM in experiment [6]; 30.5 µM in [7]. Moreover, the TGI was found to be 29.3 µM in [8]; 32.7 µM in experiment [9]; 39.2 µM in experiment [10]; 29.8 µM in [11]; 40.6 µM in experiment [12]; 24.8 µM in [13]. Besides, the TGI in [14] amounted to 28.6 µM; in experiment [15], 31.8 µM; in experiment [16], 31.5 µM; in [17], 54.1 µM; in experiment [18] it was 30.4 µM; in experiment [19] it was 30 µM. In experiment [20], this compound came in with a TGI of 35.9 µM.
